6 compounds from US10287267B2, “Isoquinolin-3-yl carboxamides and preparation and use thereof” (Samumed, LLC, priority 2016, dated 2019) can be followed below.

Experiment [1] relates to SW480 colon carcinoma cells. In words: Cell viability assay (CellTiter-Glo). The class given is cell-based, human. The following applies: Homo sapiens; for pEC50: 96 h, SW480 cells, CellTiter-Glo, four days incubation.
Experiment [2] has as its system Wnt pathway (Sp5-Luc reporter, TCF/LEF binding sites) in SW480 colon carcinoma cells. In words: Screening assay for Wnt activity: Sp5-Luc reporter gene assay.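 Further: firefly luciferase luminescence read in stably transduced SW480 cells carrying the Sp5 promoter reporter with eight TCF/LEF sites, compounds given in 0.1% DMSO final.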 The class given is cell-based, human. The following applies: Homo sapiens; Sp5-Luc reporter, SW480 cells, 36 to 48 hours.
Method: The screening assay for Wnt activity is described as follows.
Following incubation, 15 μl of BriteLite Plus luminescence reagent (Perkin Elmer) was added to each well of the 384-well assay plates. The plates were placed on an orbital shaker for 2 min and then luminescence was quantified using the Envision (Perkin Elmer) plate reader.
Experiment [3] deals with recombinant GSK3β kinase (Homo sapiens (Human), UniProt P49841). In words: GSK3β kinase assay (Ser/Thr 09 peptide Z-lyte FRET).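 Further: kinase activity read as coumarin to fluorescein emission ratio, 11-point threefold dilutions from 10 µM to 0.0003 µM in duplicate, unphosphorylated and phosphorylated peptide as 0% and 100% controls.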 It counts as biochemical. The following applies: 46 μM ATP, 1 h room temperature.
Chain of recombinant GSK3β kinase (P49841 whole entry): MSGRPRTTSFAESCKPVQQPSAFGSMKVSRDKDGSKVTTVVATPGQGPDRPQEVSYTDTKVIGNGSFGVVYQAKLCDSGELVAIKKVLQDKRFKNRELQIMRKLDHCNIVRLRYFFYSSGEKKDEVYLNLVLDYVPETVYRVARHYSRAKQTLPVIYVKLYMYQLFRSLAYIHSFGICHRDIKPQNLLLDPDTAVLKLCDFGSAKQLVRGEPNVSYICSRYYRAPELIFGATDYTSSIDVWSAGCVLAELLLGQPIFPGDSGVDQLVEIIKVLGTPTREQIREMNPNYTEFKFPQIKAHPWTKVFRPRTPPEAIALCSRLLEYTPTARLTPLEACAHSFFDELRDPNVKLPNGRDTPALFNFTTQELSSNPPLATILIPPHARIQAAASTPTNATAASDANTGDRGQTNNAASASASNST
Experiment [4] concerns TNFα. In words: Secreted cytokines in lipopolysaccharide-stimulated BV-2 mouse microglial cells: TNFα. The class given is cell-based. The following applies: BV-2 cells, compounds overnight, LPS 250 ng/mL 5 h. The procedure:
(§1) Representative compounds were screened using the cell-based assay procedure for secreted cytokines in a Lipopolysaccharide-stimulated mouse glial cell line described below.
(§2) BV-2 cells (mouse microglial cells) were cultured in 1:1 DMEM medium supplemented with 10% FBS, and 1% penicillin/streptomycin.
(§3) BV-2 cells are plated at 35,000 cells/well in a volume of 100 ul for at least 4 hours before compounds are added. DMSO-resuspended compounds were first dispensed in a 96 well plate and serial diluted from 10 μM to 4.6 nM final concentration in medium. Compounds were added to cells overnight. Two hundred fifty ng per milliliter of lipopolysaccharide (Escherichia coli O55:B5, SIGMA) was added for 5 h. Supernatant is removed and saved for further cytokine detection. The original plates with seeded cells were tested for cytotoxicity by measure of adenosine triphosphate (ATP) release by adding CellTiter-Glo® diluted 1:4 in distilled water (G7573, Promega) and transferring lysed cells to a completely black 96-well plate to be read with the Cytation3. Supernatant was then diluted 1:2 with a diluent from V-PLEX cytokine Kit and directly tested for the secreted cytokines TNFα, IL-6 and KC-GRO using electrochemiluminescence (Meso Scale Discovery). The standard curve for each cytokine was used to convert the electrochemiluminescent signal into pg of protein per mL.

Experiment [5] has as its system α-smooth muscle actin (αSMA) positive LL29 cells. Description: Inhibition of fibrotic process: αSMA in TGF-β1 treated primary human fibroblasts from IPF patients.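 On all read-outs here: controls were TGF-β1 stimulated wells with DMSO vehicle (positive) and cells given DMSO alone (negative), cultured in F12 medium with 1% fetal bovine serum.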 The class given is cell-based. The conditions noted are these: Homo sapiens, Fibroblast; for pEC50: 96 h, Table 8, LL29 fibroblasts from IPF patients, TGF-β1 20 ng/mL, 4 days, dose-response 10 μM to 0.94 nM.

Experiment [6] relates to Tau phosphorylation at Ser396 (pSer396). Description: Tau phosphorylation assay (pSer396 ELISA / western blot) in SH-SY5Y cells.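 Further: EC50 for reduction of Tau pSer396 in lysed cells, measured by colorimetric ELISA or chemiluminescent western blot, both using the same pSer396 antibody.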 The class given is cell-based, human. The following applies: Homo sapiens; SH-SY5Y cells, overnight (16-18 h) exposure; read-out: pSer396 Tau EC50.
For experiment [7], the system named is IL-6. Description: Secreted cytokines in lipopolysaccharide-stimulated BV-2 mouse microglial cells: IL-6. The conditions noted are these: Mus musculus; BV-2 cells, compounds overnight, LPS 250 ng/mL 5 h. The class given is cell-based. The method, then: as §1, §2, §3
For experiment [8], the system named is IL-6. In words: IL-6 inhibition in LPS-stimulated human peripheral blood mononuclear cells (HTRF).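 On all read-outs here: IL-6 detected by HTRF with an XL665- and Cryptate-labelled anti-IL-6 antibody pair, samples run in duplicate, EC50 obtained from a four-parameter Levenberg-Marquardt curve fit.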 The class given is cell-based. The following applies: Homo sapiens, PBMC; for inhibition at 10 µM: read-out: percent value in parentheses beside EC50 >10 μM; for pEC50: Table 9, huPBMCs, LPS 50 ng/mL, 22 hours, dose-response starting from 10 μM.
Method: After 22 hour incubation, a mixture of anti-IL6 XL665 and anti-IL-6 Cryptate diluted in reconstitution buffer (Catalog #62IL6PEC, Cisbio Inc., Bedford, Mass.) was added to each well. […] All samples were processed in duplicate. […] EC50 was determined using software generated by Dotmatics Limited (Windhill Bishops Stortford Herts, UK) using the Levenberg-Marquardt 4 parameter fitting procedure with finite different gradients.
Experiment [9] concerns KC-GRO. In words: Secreted cytokines in lipopolysaccharide-stimulated BV-2 mouse microglial cells: KC-GRO. It counts as cell-based. The following applies: BV-2 cells, compounds overnight, LPS 250 ng/mL 5 h. The procedure: as §1, §2, §3
Experiment [10] concerns the target recombinant DYRK1A kinase (Homo sapiens (Human), UniProt Q13627). In words: DYRK1A kinase assay (Ser/Thr 18 peptide Z-lyte FRET).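 Further: Read-out is the coumarin to fluorescein emission ratio, referenced to unphosphorylated (0%) and phosphorylated (100%) Ser/Thr 18 peptide controls, values from dose-response curves by non-linear regression.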 The class given is biochemical. The following applies: 30 μM ATP, 1 h room temperature.

The structures appear in SMILES notation. pEC50: −log10 of the molar value. Where only a bound is given, the exact number is not on record here.

For the compound `CN1CCN(CC(=O)Nc2cc3cc(-c4cn(C)nn4)ccc3cn2)CC1` [Compound 500, N-(6-(1-Methyl-1H-1,2,3-triazol-4-yl)isoquinolin-3-yl)-2-(4-methylpiperazin-1-yl)acetamide], the pEC50 in experiment [1] is below 5.00; in experiment [2] it was 5.49; in experiment [3], 7.64; in [4], 5.92; in experiment [5], 6.17; in experiment [6] it was 6.41. Besides, the negative-log EC50 (pEC50) was 7.47 in [7], below 5.00 in experiment [8], 8.15 in [9] and 7.97 in experiment [10]. The inhibition at 10 µM in [1] (SW480, read-out: percent inhibition at 10 μM) is 25.1%; in experiment [8], 4%.
As to `CN1CCC(C(=O)Nc2cc3cc(-c4cnn(C)c4)c(F)cc3cn2)CC1` [Compound 966, N-(7-Fluoro-6-(1-methyl-1H-pyrazol-4-yl)isoquinolin-3-yl)-1-methylpiperidine-4-carboxamide], the pEC50 is 6.59 in [1]; 5.80 in [2]; 7.49 in experiment [3]; 7.22 in experiment [4]; 7.85 in experiment [5]; 6.63 in experiment [6]. Moreover, the pEC50 is 7.66 in [7], 7.15 in experiment [9] and 8.70 in experiment [10].
For the compound `Cn1cc(-c2ccc3cnc(NC(=O)C4CCN(CC(C)(C)O)CC4)cc3c2)cn1` [Compound 1006, 1-(2-Hydroxy-2-methylpropyl)-N-(6-(1-methyl-1H-pyrazol-4-yl)isoquinolin-3-yl)piperidine-4-carboxamide], the pEC50 was 6.23 in experiment [1]; 6.15 in experiment [2]; 7.30 in experiment [3]; 7.62 in experiment [4]; 7.21 in [5]; 6.53 in [6]. For the same compound, the negative-log EC50 (pEC50) in [7] was 7.96; in [8], 5.95; in experiment [9], 7.57; in experiment [10], 8.52.
`Cc1nnc(-c2ccc3cnc(NC(=O)C4CCN(CC(C)C)CC4)cc3c2)o1` [Compound 1020, 1-Isobutyl-N-(6-(5-methyl-1,3,4-oxadiazol-2-yl)isoquinolin-3-yl)piperidine-4-carboxamide]: the pEC50 in [1] was 5.99; in [2] it was 5.94; in experiment [3] it was 7.89; in experiment [4] it was 6.22; in experiment [5] it was below 5.00; in experiment [6] it was 7.31. For the same compound, the pEC50 is 7.06 in [7], 5.93 in [8], 6.15 in experiment [9] and 7.98 in experiment [10]. In [5] (read-out: percent value in parentheses beside EC50 >10 μM), the inhibition at 10 µM worked out at 30.6%.
Turning to `CN1CCC(C(=O)Nc2cc3cc(-c4nnc(N(C)C)o4)ccc3cn2)CC1` [Compound 1076, N-(6-(5-(dimethylamino)-1,3,4-oxadiazol-2-yl)isoquinolin-3-yl)-1-methylpiperidine-4-carboxamide], the negative-log EC50 (pEC50) in experiment [1] is 5.80; in [2], 6.19; in experiment [3] it was 7.96; in experiment [4], 5.74; in [6], 7.39; in experiment [7], 8.10. The pEC50 in experiment [8] was below 5.00; in experiment [9], 6.54; in [10], 8.08. For the same compound, the inhibition at 10 µM in [8] was 3%.
Turning to `Cc1ncc(-c2ccc3cnc(NC(=O)[C@H]4CC[C@H](N(C)C)CC4)cc3c2)o1` [Compound 1017, trans-4-(dimethylamino)-N-(6-(2-methyloxazol-5-yl)isoquinolin-3-yl)cyclohexane-1-carboxamide], the pEC50 in experiment [1] is 6.18; in experiment [2], 6.21; in experiment [3], 7.12; in experiment [4], 7.54; in experiment [5], 7.01; in experiment [6] it was 6.49. In addition, the pEC50 in experiment [7] is 7.62; in experiment [8], 6.18; in experiment [9], 7.66; in [10] it was 8.51.
